Test results: ChEMBL document CHEMBL1201862, “PubChem BioAssay data set” (2004)
The source made the active and inactive calls.

Key:
[1] = A Cell Based Secondary Assay To Explore Cytotoxicity of Compounds that Sensitize Mycobacterium Tuberculosis to Beta-Lactam Antibiotics.; format: functional
[2] = molecular target: T1, Heat shock factor protein 1 (Mus musculus, UniProt P38532); assay: inhibition of MG132-induced HSE-luciferase signal, confirmation, cell-based, NIH3T3, luminescence, dose retest (AID 2382); format: functional;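 also: NIH3T3 fibroblasts with HSF1-driven luciferase reporter stressed by proteasome inhibitor MG132; luminescence from HSF1-driven luciferase expression after 8 hours of MG132 stress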
T1 sequence (P38532 whole entry): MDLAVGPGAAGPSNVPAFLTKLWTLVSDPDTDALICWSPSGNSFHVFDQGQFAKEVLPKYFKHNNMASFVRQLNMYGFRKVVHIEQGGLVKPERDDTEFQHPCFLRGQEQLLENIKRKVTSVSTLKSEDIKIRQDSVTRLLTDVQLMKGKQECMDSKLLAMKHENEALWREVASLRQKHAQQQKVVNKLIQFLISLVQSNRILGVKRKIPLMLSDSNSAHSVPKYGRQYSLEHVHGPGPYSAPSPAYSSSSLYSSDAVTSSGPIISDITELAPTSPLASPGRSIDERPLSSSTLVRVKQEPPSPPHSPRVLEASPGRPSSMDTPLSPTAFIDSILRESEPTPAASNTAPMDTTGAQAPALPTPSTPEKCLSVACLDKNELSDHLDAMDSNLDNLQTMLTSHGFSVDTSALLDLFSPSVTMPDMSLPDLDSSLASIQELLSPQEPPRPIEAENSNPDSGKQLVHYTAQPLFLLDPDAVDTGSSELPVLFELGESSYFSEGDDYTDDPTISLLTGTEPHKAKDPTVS

[3] = molecular target: T2, Microphthalmia-associated transcription factor (Homo sapiens, UniProt O75030); assay: TRPM1 promoter luciferase signal decrease, dose response, MITF inhibitor project, cell-based, SK-MEL-5, cherry-picked, set 3 (AID 493073); format: functional
T2 sequence (O75030 whole entry): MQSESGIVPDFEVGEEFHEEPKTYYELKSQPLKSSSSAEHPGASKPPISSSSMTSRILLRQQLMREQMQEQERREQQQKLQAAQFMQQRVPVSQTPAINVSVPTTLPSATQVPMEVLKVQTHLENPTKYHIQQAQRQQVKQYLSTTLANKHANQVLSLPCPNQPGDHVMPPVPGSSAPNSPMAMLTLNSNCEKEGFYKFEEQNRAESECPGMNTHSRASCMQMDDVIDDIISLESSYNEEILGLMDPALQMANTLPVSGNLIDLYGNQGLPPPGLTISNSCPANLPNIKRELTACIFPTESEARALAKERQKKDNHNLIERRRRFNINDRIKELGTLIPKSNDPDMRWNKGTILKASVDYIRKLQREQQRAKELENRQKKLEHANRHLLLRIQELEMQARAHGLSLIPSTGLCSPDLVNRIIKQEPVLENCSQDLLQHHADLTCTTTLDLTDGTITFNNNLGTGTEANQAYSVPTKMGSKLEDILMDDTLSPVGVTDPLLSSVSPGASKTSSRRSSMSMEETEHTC

[4] = cytotoxicity in HEK-293T cells, dose response, cytotoxicity control for BCR NF-kB inhibitor project, luminescence, B-cell screen hits (AID 489021); format: functional, cell-based;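 also: HEK-293T cells carrying an NF-kB luciferase reporter; cells exposed to compound for about 14 hours before viability readout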
[5] = NIH-3T3 fibroblast cytotoxicity, dose response, cytotoxicity control, cell-based, fluorescence, Alamar Blue, secondary assay (AID 2327); format: functional;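 also: NIH-3T3 mouse fibroblasts cultured with fluconazole at 8 µg/mL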
[6] = C. albicans growth with fluconazole, confirmation, fluorescence, retest (AID 2467); format: functional, cell-based
[7] = inhibitors of intracellular T. cruzi replication, confirmation, NIH3T3 host cells, beta-gal luminescence (AID 2044); format: functional, cell-based;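 also: intracellular parasites grown in NIH/3T3 mouse fibroblasts as host cells; luminescent beta-galactosidase reporter signal from transgenic T. cruzi replicating inside host cells; inhibitors lower the luminescence signal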
[8] = growth suppression of PTEN-null colon cells, dose response, cell-based, HCT116 PTEN knockout (AID 1047); format: functional;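 also: HCT116 colon tumor cells with PTEN knocked out; cells exposed to compound for 60 hours before readout; potency for loss of cell viability measured by luminescence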
[9] = cytotoxicity toward NIH3T3 fibroblasts, dose response, counter-screen, cell-based, ATP luminescence, mouse fibroblasts (AID 2010); format: functional;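 also: cells exposed to compound for about 90 hours before reading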
[10] = growth suppression of beta-catenin-knockout colon cells, dose response, cell-based, HCT116, human colon tumor (AID 1045); format: functional;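 also: HCT116 colon tumor cells with beta catenin knocked out; cells exposed to compound for 60 hours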
[11] = molecular target: T3, Short transient receptor potential channel 4 (Mus musculus, UniProt Q9QUQ5); assay: mouse TRPC4 channel inhibitors, dose response, cell-based, HEK293 TRPC4/mu-opioid, Fluo-4 calcium (AID 434942); format: functional;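 also: potency of inhibitors blocking the TRPC4 calcium response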
T3 sequence (Q9QUQ5 whole entry): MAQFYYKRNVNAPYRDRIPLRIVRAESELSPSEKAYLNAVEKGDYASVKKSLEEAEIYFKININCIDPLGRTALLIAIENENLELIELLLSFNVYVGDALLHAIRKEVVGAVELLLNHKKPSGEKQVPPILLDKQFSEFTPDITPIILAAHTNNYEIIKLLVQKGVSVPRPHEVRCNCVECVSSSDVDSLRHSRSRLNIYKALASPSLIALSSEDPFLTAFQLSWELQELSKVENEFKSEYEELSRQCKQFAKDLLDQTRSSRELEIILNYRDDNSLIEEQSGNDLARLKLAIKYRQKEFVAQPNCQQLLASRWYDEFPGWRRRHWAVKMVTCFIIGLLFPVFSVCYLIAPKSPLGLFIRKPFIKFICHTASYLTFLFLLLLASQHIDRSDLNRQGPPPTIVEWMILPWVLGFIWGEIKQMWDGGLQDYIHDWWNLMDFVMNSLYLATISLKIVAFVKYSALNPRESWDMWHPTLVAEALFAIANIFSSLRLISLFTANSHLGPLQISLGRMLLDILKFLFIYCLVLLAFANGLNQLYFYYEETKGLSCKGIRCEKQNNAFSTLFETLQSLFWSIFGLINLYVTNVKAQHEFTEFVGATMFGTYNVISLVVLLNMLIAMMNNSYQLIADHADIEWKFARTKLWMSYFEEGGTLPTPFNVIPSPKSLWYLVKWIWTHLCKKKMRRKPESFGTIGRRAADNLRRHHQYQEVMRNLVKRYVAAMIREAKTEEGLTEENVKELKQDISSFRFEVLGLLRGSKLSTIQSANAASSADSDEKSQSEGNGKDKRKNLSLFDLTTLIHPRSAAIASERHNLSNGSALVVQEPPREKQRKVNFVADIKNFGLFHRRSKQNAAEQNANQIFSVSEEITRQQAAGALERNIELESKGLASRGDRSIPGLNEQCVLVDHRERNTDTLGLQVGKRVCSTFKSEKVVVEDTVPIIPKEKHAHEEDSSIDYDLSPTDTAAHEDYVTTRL

[12] = molecular target: T1, Heat shock factor protein 1; assay: HSF1 potentiators in luciferase reporter cells, confirmation, cell-based, NIH3T3, luminescence, dose retest (AID 435004); format: functional;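 also: stress induced by proteasome inhibitor MG132 added 30 min after compound; luciferase reporter driven by HSF1 response element in NIH3T3 cells; actives raise luminescence as potentiators of the MG132 stress response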
[13] = tested on: INS1; assay: beta cell apoptosis inhibitors, cytokine rescue, dose response, luminescence, retest (AID 449756); format: functional, cell-based; conditions: Rattus norvegicus;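 also: cell death triggered by IL-1 beta plus TNF-alpha plus IFN-gamma mixture; protective hits raise ATP signal compared with cytokine alone wells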
[14] = microbe, parasite or virus in culture; format: functional; conditions: Mycobacterium tuberculosis
[15] = molecular target: Glucose-6-phosphate 1-dehydrogenase (Homo sapiens, UniProt P11413); assay: human G6PD enzyme inhibitors, dose response, selectivity assay for P. falciparum G6PD inhibitor project, biochemical, fluorescence (AID 504792); format: functional
Sequence of Glucose-6-phosphate 1-dehydrogenase (P11413 whole entry): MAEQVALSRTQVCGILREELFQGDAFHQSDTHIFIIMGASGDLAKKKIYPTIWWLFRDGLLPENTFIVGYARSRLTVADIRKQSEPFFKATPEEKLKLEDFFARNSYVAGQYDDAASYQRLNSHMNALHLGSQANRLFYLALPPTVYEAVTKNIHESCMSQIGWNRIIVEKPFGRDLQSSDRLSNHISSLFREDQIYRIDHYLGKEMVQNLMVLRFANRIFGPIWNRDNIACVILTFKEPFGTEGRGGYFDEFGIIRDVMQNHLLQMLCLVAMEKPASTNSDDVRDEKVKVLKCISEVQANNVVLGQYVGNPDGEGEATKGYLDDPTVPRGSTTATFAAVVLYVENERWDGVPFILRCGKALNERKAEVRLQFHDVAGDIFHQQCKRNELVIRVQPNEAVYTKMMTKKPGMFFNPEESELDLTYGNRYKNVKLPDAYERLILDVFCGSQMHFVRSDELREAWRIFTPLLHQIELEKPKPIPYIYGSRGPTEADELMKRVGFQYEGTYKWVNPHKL

[16] = THP-1 cell cytotoxicity, dose response, cytotoxicity control for non-replicating M. tuberculosis project (AID 489025); format: functional
[17] = Vero E6 cell cytotoxicity, dose response, cytotoxicity control for non-replicating M. tuberculosis project, secondary assay (AID 492998); format: functional, VeroE6; conditions: Vero C1008
[18] = cells; format: functional
[19] = tested on: Streptococcus sp. 'group A'; assay: growth inhibition of control SK(-) GAS strain, dose response, counter-screen for streptokinase expression inhibitor project, luminescence, kanamycin, BacTiterGlo, confirmation (AID 1900); format: functional, organism-based
[20] = molecular target: T4, Streptokinase A (Streptococcus pyogenes serotype M1, UniProt P10520); assay: S. pyogenes streptokinase expression inhibitors, potency, dose response, plasminogen activation absorbance, OD405 (AID 1914); format: functional, Streptococcus pyogenes M1 GAS;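 also: secreted streptokinase activity via plasminogen activation per viability signal from cell pellet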
T4 sequence (P10520 whole entry): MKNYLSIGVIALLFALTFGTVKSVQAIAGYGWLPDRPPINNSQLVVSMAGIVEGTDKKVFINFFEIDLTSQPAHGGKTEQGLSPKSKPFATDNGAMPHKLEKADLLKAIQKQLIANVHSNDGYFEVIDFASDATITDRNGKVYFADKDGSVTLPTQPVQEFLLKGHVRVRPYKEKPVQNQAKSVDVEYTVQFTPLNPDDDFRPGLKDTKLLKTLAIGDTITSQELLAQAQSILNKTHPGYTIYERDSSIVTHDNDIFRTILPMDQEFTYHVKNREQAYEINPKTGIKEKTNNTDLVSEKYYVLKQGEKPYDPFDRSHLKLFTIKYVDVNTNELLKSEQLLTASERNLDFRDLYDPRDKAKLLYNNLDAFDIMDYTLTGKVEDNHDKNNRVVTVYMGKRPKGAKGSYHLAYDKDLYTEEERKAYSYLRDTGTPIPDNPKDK

[21] = molecular target: T5, Estrogen receptor (Homo sapiens, UniProt P03372);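 also: potency for inhibiting coactivator peptide recruitment to the receptor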
T5 sequence (P03372 whole entry): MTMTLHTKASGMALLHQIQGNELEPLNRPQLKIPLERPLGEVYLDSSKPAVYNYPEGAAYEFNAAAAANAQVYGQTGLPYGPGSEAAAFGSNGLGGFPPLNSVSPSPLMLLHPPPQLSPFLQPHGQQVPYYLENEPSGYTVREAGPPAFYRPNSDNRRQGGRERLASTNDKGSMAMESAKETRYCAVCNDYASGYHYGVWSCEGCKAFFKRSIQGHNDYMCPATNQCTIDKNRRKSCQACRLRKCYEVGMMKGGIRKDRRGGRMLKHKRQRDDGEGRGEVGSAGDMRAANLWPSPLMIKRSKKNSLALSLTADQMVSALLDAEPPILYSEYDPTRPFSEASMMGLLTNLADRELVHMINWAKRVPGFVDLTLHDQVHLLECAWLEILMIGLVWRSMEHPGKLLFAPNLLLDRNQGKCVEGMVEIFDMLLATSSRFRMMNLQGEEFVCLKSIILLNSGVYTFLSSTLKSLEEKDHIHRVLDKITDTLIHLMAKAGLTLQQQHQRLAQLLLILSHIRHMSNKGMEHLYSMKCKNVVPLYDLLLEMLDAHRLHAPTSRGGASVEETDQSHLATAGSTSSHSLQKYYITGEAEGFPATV

[22] = tested on: Streptococcus; assay: Group A Streptococcus viability loss, dose response, counter-screen for streptokinase expression inhibitor project, luminescence, BacTiterGlo (AID 1915); format: functional, organism-based;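 also: potency for reduction of bacterial viability or growth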
[23] = molecular target: Induced myeloid leukemia cell differentiation protein Mcl-1 (Homo sapiens, UniProt Q07820); format: functional
Sequence of Induced myeloid leukemia cell differentiation protein Mcl-1 (Q07820 whole entry): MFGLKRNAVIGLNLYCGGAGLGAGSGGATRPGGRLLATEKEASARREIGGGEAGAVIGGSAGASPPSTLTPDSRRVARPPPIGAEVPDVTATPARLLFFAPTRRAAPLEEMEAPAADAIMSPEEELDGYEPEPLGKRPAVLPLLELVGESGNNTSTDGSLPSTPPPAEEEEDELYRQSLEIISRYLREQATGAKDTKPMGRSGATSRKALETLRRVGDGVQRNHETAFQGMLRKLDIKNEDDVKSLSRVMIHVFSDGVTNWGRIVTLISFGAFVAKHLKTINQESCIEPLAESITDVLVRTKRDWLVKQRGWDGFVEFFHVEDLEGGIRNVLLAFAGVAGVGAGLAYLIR

[24] = molecular target: Genome polyprotein (dengue virus type 2, UniProt P29990); assay: Dengue-2 NS5 methyltransferase inhibitors, primary screen, biochemical, confirmation dose response (AID 588689); format: functional
Sequence of Genome polyprotein (P29990 2492-3391 limits assumed): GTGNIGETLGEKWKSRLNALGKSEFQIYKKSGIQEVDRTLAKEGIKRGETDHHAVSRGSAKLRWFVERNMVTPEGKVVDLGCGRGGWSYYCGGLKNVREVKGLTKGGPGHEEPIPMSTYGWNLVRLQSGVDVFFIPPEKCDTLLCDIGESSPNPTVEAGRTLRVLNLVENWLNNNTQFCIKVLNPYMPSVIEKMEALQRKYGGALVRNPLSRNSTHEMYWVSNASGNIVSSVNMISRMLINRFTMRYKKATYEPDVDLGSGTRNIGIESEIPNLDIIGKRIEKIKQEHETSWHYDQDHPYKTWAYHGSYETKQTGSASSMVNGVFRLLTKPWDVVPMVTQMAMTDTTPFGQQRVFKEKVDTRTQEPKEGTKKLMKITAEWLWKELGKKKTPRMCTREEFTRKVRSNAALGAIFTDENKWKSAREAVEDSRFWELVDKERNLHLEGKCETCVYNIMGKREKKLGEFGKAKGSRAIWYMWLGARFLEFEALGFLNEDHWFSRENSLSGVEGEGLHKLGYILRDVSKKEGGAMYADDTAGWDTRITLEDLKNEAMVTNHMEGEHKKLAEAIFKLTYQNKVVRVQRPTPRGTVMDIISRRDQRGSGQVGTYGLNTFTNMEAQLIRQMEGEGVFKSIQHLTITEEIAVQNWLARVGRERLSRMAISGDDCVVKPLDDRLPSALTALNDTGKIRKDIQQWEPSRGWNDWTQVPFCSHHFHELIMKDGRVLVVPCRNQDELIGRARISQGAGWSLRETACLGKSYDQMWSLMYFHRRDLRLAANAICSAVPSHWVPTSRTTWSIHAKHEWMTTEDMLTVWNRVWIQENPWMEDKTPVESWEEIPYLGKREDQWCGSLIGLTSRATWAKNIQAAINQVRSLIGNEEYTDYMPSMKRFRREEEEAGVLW

[25] = tested on: Vero; assay: cells; format: functional; conditions: Chlorocebus sabaeus
[26] = molecular target: Large T antigen (Simian virus 40, UniProt P03070); format: functional, Betapolyomavirus macacae;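 also: Confirmatory-stage PubChem screen for compounds that inhibit SV40 T antigen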
Sequence of Large T antigen (P03070 whole entry): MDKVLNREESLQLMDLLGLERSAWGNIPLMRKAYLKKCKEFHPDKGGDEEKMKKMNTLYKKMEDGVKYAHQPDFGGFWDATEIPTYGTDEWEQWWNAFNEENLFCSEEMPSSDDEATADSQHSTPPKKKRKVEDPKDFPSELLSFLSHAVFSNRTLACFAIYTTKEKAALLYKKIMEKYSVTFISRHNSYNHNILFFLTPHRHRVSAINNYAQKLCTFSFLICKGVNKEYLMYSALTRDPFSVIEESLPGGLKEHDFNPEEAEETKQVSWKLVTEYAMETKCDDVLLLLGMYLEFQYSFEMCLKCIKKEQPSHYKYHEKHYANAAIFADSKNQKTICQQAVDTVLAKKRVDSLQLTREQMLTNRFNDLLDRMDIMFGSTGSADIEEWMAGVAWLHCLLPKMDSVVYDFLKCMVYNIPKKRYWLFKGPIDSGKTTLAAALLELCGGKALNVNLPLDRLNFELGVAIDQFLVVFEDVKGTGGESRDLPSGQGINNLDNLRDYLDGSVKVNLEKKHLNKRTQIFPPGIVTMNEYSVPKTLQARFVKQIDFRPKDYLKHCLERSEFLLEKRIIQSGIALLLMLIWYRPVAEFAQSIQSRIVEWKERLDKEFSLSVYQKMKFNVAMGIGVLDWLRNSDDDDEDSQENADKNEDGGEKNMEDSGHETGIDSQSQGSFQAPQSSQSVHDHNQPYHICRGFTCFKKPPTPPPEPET

[27] = molecular target: Estrogen receptor beta (Homo sapiens, UniProt Q92731);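 also: recombinant ER-beta bound to coactivator SRC1 peptide in presence of estradiol agonist; inhibitors block coactivator peptide binding and lower the FRET signal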
Sequence of Estrogen receptor beta (Q92731 whole entry): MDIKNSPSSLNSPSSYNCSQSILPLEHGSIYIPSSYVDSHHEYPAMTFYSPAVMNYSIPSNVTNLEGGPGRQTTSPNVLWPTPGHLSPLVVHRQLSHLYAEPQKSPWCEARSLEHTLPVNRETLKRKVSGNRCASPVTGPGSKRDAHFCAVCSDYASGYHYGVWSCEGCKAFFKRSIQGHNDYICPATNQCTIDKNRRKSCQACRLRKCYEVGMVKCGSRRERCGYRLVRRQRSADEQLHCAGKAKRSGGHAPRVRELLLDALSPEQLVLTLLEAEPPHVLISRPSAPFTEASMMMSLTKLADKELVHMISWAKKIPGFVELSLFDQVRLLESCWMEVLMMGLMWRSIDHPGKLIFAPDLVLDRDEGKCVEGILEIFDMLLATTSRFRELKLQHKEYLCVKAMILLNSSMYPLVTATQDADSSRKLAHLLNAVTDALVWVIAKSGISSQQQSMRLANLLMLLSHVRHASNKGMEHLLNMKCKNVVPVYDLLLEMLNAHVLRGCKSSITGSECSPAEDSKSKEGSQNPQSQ

SMILES: Nc1c(C(=O)N2CCCC2)sc2nc3c(cc12)CCCCCC3
- CC50 [1]: > 40 µM (active)

SMILES: O=C1CCC2S/C(=C/Nc3ccc(C(F)(F)F)cc3)C(=O)N12 (stereo not given)
- EC50 [2]: 2.44 µM (active)
- AC50 [3]: 3.57 µM (active)
- IC50 [4]: > 80 µM (inactive)

SMILES: CC#CC[N+](C)(C)CCCCCCCCCCCC
- EC50 [5]: > 150 µM (inactive)
- CC50 [1]: > 40 µM (active)
- EC50 [6]: 2.85 µM (active)
- EC50 [7]: 1.05 µM (active)
- EC50 [8]: 4.9 µM (active)
- EC50 [9]: > 30 µM (not active)
- EC50 [10]: 5.82 µM (active)
- EC50 [11]: 1.5 µM (active)
- EC50 [12]: > 260 µM (inactive)
- AC50 [13]: 1.85 µM (active)

SMILES: Cc1cccc(NC(=O)Cn2c(=O)n(Cc3ccccc3)c(=O)c3c(C)c(C)sc32)c1
- CC50 [1]: > 40 µM (active)

SMILES: CCOC(=O)Cc1csc(NC(=S)NC(=O)c2ccc(C)cc2)n1
- IC50 [4]: > 80 µM (inactive)

SMILES: CC(C)Cn1c([N+](=O)[O-])nc2c1c(=O)[nH]c(=O)n2C
- CC50 [14]: 12.4 µM (active)
- IC50 [15]: > 80 µM (inactive)
- CC50 [16]: 9.18 µM (active)
- CC50 [17]: 14.6 µM (active)
- IC50 [4]: 47.3 µM (inactive)
- IC50 [18]: 5.98 µM (active)

SMILES: Cc1nn(Cc2ccc(C(=O)Nc3nc4c(C)cccc4s3)o2)c(C)c1Br
- EC50 [19]: 4.94 µM (active)
- EC50 [20]: 5.58 µM (active)
- IC50 [21]: > 50 µM (not active)
- EC50 [22]: 8.54 µM (active)

SMILES: COC(=O)C1=C(C(=O)OC)C(c2cc(Cl)ccc2O)c2sc(O)nc2S1 (stereo not given)
- IC50 [23]: 4.4 µM (active)
- IC50 [24]: > 100 µM (active)

SMILES: O=C1Nc2ccccc2/C1=C/C(=O)c1cccs1
- EC50 [5]: > 150 µM (inactive)
- EC50 [2]: > 195 µM (not active)
- EC50 [6]: 1.75 µM (active)
- EC50 [8]: 7.47 µM (active)
- EC50 [10]: 5.7 µM (active)
- CC50 [16]: 21.1 µM (active)
- CC50 [17]: 14.4 µM (active)
- IC50 [18]: 8.52 µM (active)
- CC50 [25]: 17.6 µM (active)

SMILES: CCOC(=O)c1cc(-c2ccc(C)cc2)n(CCC(=O)N2CCN(c3ccccn3)CC2)c1C
- CC50 [1]: > 40 µM (active)

SMILES: CC(C)(C)c1ccc(C(=O)Nc2nnc(C3=COCCO3)o2)cc1
- EC50 [19]: 0.429 µM (active)
- EC50 [22]: 9.1 µM (active)
- CC50 [16]: 34.2 µM (active)
- CC50 [17]: > 20 µM (active)
- IC50 [18]: 2.11 µM (active)

SMILES: Cc1cc(C)cc(OCc2nnc(SCC(=O)c3ccccc3)o2)c1
- IC50 [4]: > 80 µM (inactive)

SMILES: Oc1ccc(/C=N/c2ccc(N3CCOCC3)cc2)c(O)c1
- IC50 [26]: 12.9 µM (active)
- IC50 [21]: 30.4 µM (not active)
- IC50 [27]: 14.4 µM (active)

SMILES: COc1cc2c(=O)n(Cc3ccco3)c(=O)n(CC(=O)c3cccc(Br)c3)c2cc1OC
- CC50 [1]: 22.2 µM (active)
- EC50 [8]: 9.13 µM (active)
- EC50 [10]: 9.71 µM (active)
